Results reported in PubChem BioAssay (NCI).
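A five-concentration, 48-hour dose response in 96-well plates underlies each endpoint, interpolated linearly between surrounding concentrations. GI50 = concentration required for 50% inhibition of growth. TGI: total growth inhibition.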

How the values were obtained:
Test in all cases: inhibition of tumour cell growth, NCI panel, 48 h
[1] = test system: OVCAR-8 ovarian
[2] = test system: DU-145 prostate
[3] = test system: SNB-75 CNS
[4] = test system: EKVX NSCLC
[5] = test system: HT29 colon
[6] = test system: NCI-H23 lung
[7] = test system: CCRF-CEM leukemia
[8] = test system: SR leukemia
[9] = test system: MDA-MB-231 breast
[10] = test system: UACC-257 melanoma
[11] = test system: SNB-19 CNS
[12] = test system: M14 melanoma
[13] = test system: SK-MEL-5 melanoma
[14] = test system: SF-539 CNS
[15] = test system: SN12C renal
[16] = test system: SK-MEL-28 melanoma
[17] = test system: NCI/ADR-RES ovarian
[18] = test system: K-562 leukemia
[19] = test system: HL-60(TB) leukemia
[20] = test system: OVCAR-4 ovarian
[21] = test system: LOX IMVI melanoma
[22] = test system: HCC-2998 colon
[23] = test system: OVCAR-5 ovarian
[24] = test system: ACHN renal
[25] = test system: HCT-15 colon
[26] = test system: BT-549 breast
[27] = test system: A498 renal
[28] = test system: RXF 393 renal

NCCNc1nc2ccc(F)cc2c2c(=O)c3cc(F)ccc3sc12
GI50 [1]: 2060 nM
TGI [1]: 4600 nM
GI50 [2]: 1900 nM
TGI [2]: 3390 nM
GI50 [3]: 138 nM
TGI [3]: 5020 nM
GI50 [4]: 1650 nM
TGI [4]: 3950 nM
GI50 [5]: 1610 nM
TGI [5]: 3060 nM
GI50 [6]: 1650 nM
TGI [6]: 3180 nM
GI50 [7]: 2110 nM
TGI [7]: 4540 nM
GI50 [8]: 1980 nM
TGI [8]: 4910 nM
GI50 [9]: 1510 nM
TGI [9]: 3080 nM
GI50 [10]: 2690 nM
TGI [10]: 7800 nM
GI50 [11]: 1940 nM
TGI [11]: 4210 nM
GI50 [12]: 2770 nM
TGI [12]: 8650 nM
GI50 [13]: 1680 nM
TGI [13]: 3250 nM
GI50 [14]: 1760 nM
TGI [14]: 3250 nM
GI50 [15]: 1680 nM
TGI [15]: 3290 nM
GI50 [16]: 2050 nM
TGI [16]: 4180 nM
GI50 [17]: 1700 nM
TGI [17]: 3330 nM
GI50 [18]: 2140 nM
TGI [18]: 5410 nM
GI50 [19]: 2280 nM
TGI [19]: 5210 nM
GI50 [20]: 2600 nM
TGI [20]: 8010 nM
GI50 [21]: 1720 nM
TGI [21]: 3130 nM
GI50 [22]: 1770 nM
TGI [22]: 3440 nM
GI50 [23]: 1770 nM
TGI [23]: 3670 nM
GI50 [24]: 1500 nM
TGI [24]: 2830 nM
GI50 [25]: 1780 nM
TGI [25]: 3370 nM
GI50 [26]: 9720 nM
TGI [26]: 24100 nM
GI50 [27]: 1640 nM
TGI [27]: 6900 nM
GI50 [28]: 2330 nM
